Where “and” joins values, the source holds several entries; their conditions need not be identical. Equal values may be shown once.
Assay: xn = mol fraction of the nth substance listed

CC(C)C[C@H](N)C(=O)O + O
Conditions | viscosity
293.15 K, 100 kPa, x1 = 0.000274 | 1.013 mPa·s
293.15 K, 100 kPa, x1 = 0.000645 | 1.038 mPa·s
293.15 K, 100 kPa, x1 = 0.000947 | 1.055 mPa·s
293.15 K, 100 kPa, x1 = 0.00132 | 1.076 mPa·s
293.15 K, 100 kPa, x1 = 0.00136 | 1.04 mPa·s
293.15 K, 100 kPa, x1 = 0.00153 | 1.044 mPa·s
293.15 K, 100 kPa, x1 = 0.00162 | 1.093 mPa·s
293.15 K, 100 kPa, x1 = 0.00172 | 1.048 mPa·s
293.15 K, 100 kPa, x1 = 0.002001 | 1.114 mPa·s
293.15 K, 100 kPa, x1 = 0.00234 | 1.133 mPa·s
298.15 K, 100 kPa, x1 = 0.000274 | 0.9 mPa·s
298.15 K, 100 kPa, x1 = 0.000292 | 0.8985 mPa·s
298.15 K, 100 kPa, x1 = 0.000459 | 0.905 mPa·s
298.15 K, 100 kPa, x1 = 0.000806 | 0.913 mPa·s
298.15 K, 100 kPa, x1 = 0.000995 | 0.917 mPa·s
298.15 K, 100 kPa, x1 = 0.00117 | 0.921 mPa·s
298.15 K, 100 kPa, x1 = 0.00132 | 0.9262 mPa·s
298.15 K, 100 kPa, x1 = 0.00136 | 0.925 mPa·s
298.15 K, 100 kPa, x1 = 0.00153 | 0.929 mPa·s
298.15 K, 100 kPa, x1 = 0.00162 | 0.9344 mPa·s
298.15 K, 100 kPa, x1 = 0.00172 | 0.933 mPa·s
298.15 K, 100 kPa, x1 = 0.002001 | 0.9447 mPa·s
298.15 K, 100 kPa, x1 = 0.00234 | 0.9538 mPa·s
303.15 K, 100 kPa, x1 = 0.000274 | 0.807 mPa·s
303.15 K, 100 kPa, x1 = 0.000292 | 0.8043 mPa·s
303.15 K, 100 kPa, x1 = 0.000459 | 0.811 mPa·s
303.15 K, 100 kPa, x1 = 0.000632 | 0.815 mPa·s
303.15 K, 100 kPa, x1 = 0.000645 | 0.8124 mPa·s
303.15 K, 100 kPa, x1 = 0.000806 | 0.819 mPa·s
303.15 K, 100 kPa, x1 = 0.000947 | 0.8194 mPa·s
303.15 K, 100 kPa, x1 = 0.000995 | 0.823 mPa·s
303.15 K, 100 kPa, x1 = 0.00117 | 0.826 mPa·s
303.15 K, 100 kPa, x1 = 0.00132 | 0.828 mPa·s
303.15 K, 100 kPa, x1 = 0.00136 | 0.83 mPa·s
303.15 K, 100 kPa, x1 = 0.00153 | 0.834 mPa·s
303.15 K, 100 kPa, x1 = 0.00162 | 0.8351 mPa·s
303.15 K, 100 kPa, x1 = 0.00172 | 0.838 mPa·s
303.15 K, 100 kPa, x1 = 0.002001 | 0.8439 mPa·s
303.15 K, 100 kPa, x1 = 0.00234 | 0.8517 mPa·s
303.15 K, 101 kPa, x1 = 0.0004 | 0.804 mPa·s
303.15 K, 101 kPa, x1 = 0.0007 | 0.809 mPa·s
303.15 K, 101 kPa, x1 = 0.001 | 0.817 mPa·s and 0.827 mPa·s
303.15 K, 101 kPa, x1 = 0.0018 | 0.834 mPa·s
305.15 K, 101 kPa, x1 = 0.0003598 | 0.7908 mPa·s
305.15 K, 101 kPa, x1 = 0.0007199 | 0.7974 mPa·s
305.15 K, 101 kPa, x1 = 0.00108 | 0.8054 mPa·s
305.15 K, 101 kPa, x1 = 0.001439 | 0.8126 mPa·s
305.15 K, 101 kPa, x1 = 0.001798 | 0.8203 mPa·s
305.15 K, 101 kPa, x1 = 0.002157 | 0.8283 mPa·s
308.15 K, 100 kPa, x1 = 0.000274 | 0.729 mPa·s
308.15 K, 100 kPa, x1 = 0.000292 | 0.7252 mPa·s
308.15 K, 100 kPa, x1 = 0.000632 | 0.736 mPa·s
308.15 K, 100 kPa, x1 = 0.000645 | 0.7323 mPa·s
308.15 K, 100 kPa, x1 = 0.000806 | 0.74 mPa·s
308.15 K, 100 kPa, x1 = 0.000947 | 0.7384 mPa·s
308.15 K, 100 kPa, x1 = 0.000995 | 0.744 mPa·s
308.15 K, 100 kPa, x1 = 0.00117 | 0.747 mPa·s
308.15 K, 100 kPa, x1 = 0.00132 | 0.7458 mPa·s
308.15 K, 100 kPa, x1 = 0.00153 | 0.755 mPa·s
308.15 K, 100 kPa, x1 = 0.00162 | 0.752 mPa·s
308.15 K, 100 kPa, x1 = 0.00172 | 0.758 mPa·s
308.15 K, 100 kPa, x1 = 0.002001 | 0.7597 mPa·s
308.15 K, 100 kPa, x1 = 0.00234 | 0.7665 mPa·s
308.15 K, 101 kPa, x1 = 0.0007 | 0.731 mPa·s
308.15 K, 101 kPa, x1 = 0.001 | 0.739 mPa·s and 0.746 mPa·s
308.15 K, 101 kPa, x1 = 0.0018 | 0.753 mPa·s
310.15 K, 101 kPa, x1 = 0.0003598 | 0.709 mPa·s
310.15 K, 101 kPa, x1 = 0.0007199 | 0.7151 mPa·s
310.15 K, 101 kPa, x1 = 0.00108 | 0.7218 mPa·s
310.15 K, 101 kPa, x1 = 0.001439 | 0.7272 mPa·s
310.15 K, 101 kPa, x1 = 0.001798 | 0.7334 mPa·s
310.15 K, 101 kPa, x1 = 0.002157 | 0.7401 mPa·s
313.15 K, 100 kPa, x1 = 0.000274 | 0.663 mPa·s
313.15 K, 100 kPa, x1 = 0.000292 | 0.6581 mPa·s
313.15 K, 100 kPa, x1 = 0.000459 | 0.667 mPa·s
313.15 K, 100 kPa, x1 = 0.000632 | 0.67 mPa·s
313.15 K, 100 kPa, x1 = 0.000645 | 0.6643 mPa·s
313.15 K, 100 kPa, x1 = 0.000806 | 0.674 mPa·s
313.15 K, 100 kPa, x1 = 0.000947 | 0.6696 mPa·s
313.15 K, 100 kPa, x1 = 0.00132 | 0.676 mPa·s
313.15 K, 100 kPa, x1 = 0.00162 | 0.6814 mPa·s
313.15 K, 100 kPa, x1 = 0.002001 | 0.688 mPa·s
313.15 K, 100 kPa, x1 = 0.00234 | 0.694 mPa·s
313.15 K, 101 kPa, x1 = 0.0004 | 0.658 mPa·s
313.15 K, 101 kPa, x1 = 0.0007 | 0.663 mPa·s
313.15 K, 101 kPa, x1 = 0.001 | 0.669 mPa·s and 0.677 mPa·s
313.15 K, 101 kPa, x1 = 0.0018 | 0.682 mPa·s
315.15 K, 101 kPa, x1 = 0.0003598 | 0.6544 mPa·s
315.15 K, 101 kPa, x1 = 0.0007199 | 0.6599 mPa·s
315.15 K, 101 kPa, x1 = 0.00108 | 0.6653 mPa·s
315.15 K, 101 kPa, x1 = 0.001439 | 0.6699 mPa·s
315.15 K, 101 kPa, x1 = 0.001798 | 0.6752 mPa·s
315.15 K, 101 kPa, x1 = 0.002157 | 0.6803 mPa·s
318.15 K, 101 kPa, x1 = 0.0007 | 0.605 mPa·s
318.15 K, 101 kPa, x1 = 0.001 | 0.611 mPa·s and 0.618 mPa·s
318.15 K, 101 kPa, x1 = 0.0018 | 0.622 mPa·s

Source: the CheMixHub viscosity set
